Our source for the IC50 values is patent publication US20250346597A1, “CONDENSED HETEROCYCLIC COMPOUNDS AS INHIBITOR OF DIACYLGLYCEROL KINASES” (BEONE MEDICINES I GMBH, priority 2023, published 2025).

The target in one assay is DGKζ (Homo sapiens (Human), UniProt Q13574). Put plainly: Biochemical DGK IC50 assay (ADP-Glo, lipid micelle substrate), DGKζ. The settings on record: full length DGKζ 0.5 nM, ATP 140 μM, DAG 80 μM. Summed up: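 ADP-Glo luminescence measured ADP made in a 1 h room-temperature reaction. The enzyme was Sf9-expressed, purified full-length human DGKζ, and the substrate was DAG/PS micelles. Assay buffer held 50 mM HEPES, 10 mM MgCl2, 0.01 mM CaCl2, 0.1 mM Na3VO4 and 0.01% BSA. IC50 was derived from activity inhibition over a compound concentration series.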

For a further assay, the target named is DGKα (Homo sapiens (Human), UniProt P23743). Put plainly: Biochemical DGK IC50 assay (ADP-Glo, lipid micelle substrate), DGKα. Note: full length DGKα 7.5 nM. The settings on record: full length DGKα […], ATP 140 μM, DAG 80 μM. Summed up:
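Luminescent ADP-Glo detection followed a 1 h room-temperature reaction of full-length DGKα on DAG/PS micelles, in HEPES buffer with 10 mM MgCl2, 0.01 mM CaCl2, 0.1 mM Na3VO4, BSA and Tween-20. IC50 derived from inhibition across increasing compound concentrations.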

Sequence of DGKζ (Q13574 other isoform, or with tags, fused parts or gaps): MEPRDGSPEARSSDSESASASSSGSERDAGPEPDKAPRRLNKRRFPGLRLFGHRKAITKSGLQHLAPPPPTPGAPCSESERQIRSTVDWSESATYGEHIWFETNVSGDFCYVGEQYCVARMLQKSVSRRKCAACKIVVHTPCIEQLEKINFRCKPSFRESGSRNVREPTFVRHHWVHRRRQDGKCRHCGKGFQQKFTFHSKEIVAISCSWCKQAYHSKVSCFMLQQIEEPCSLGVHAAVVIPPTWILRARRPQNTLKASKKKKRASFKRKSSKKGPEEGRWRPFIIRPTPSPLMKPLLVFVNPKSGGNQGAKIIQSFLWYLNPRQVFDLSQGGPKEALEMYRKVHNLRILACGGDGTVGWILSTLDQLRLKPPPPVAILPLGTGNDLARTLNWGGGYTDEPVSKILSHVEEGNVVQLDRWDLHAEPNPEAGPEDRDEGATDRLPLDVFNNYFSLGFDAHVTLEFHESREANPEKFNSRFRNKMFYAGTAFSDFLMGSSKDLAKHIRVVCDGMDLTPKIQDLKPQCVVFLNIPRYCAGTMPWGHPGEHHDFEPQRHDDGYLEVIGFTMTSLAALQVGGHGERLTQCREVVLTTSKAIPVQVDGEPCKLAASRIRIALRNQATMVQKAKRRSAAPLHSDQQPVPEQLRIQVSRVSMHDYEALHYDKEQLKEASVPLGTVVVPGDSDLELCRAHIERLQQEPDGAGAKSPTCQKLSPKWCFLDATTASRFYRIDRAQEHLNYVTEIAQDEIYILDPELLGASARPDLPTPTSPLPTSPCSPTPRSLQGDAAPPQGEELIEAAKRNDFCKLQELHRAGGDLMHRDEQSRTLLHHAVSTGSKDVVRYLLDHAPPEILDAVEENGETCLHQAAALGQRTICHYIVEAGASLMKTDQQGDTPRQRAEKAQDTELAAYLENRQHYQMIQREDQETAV
Sequence of DGKα (P23743 whole entry): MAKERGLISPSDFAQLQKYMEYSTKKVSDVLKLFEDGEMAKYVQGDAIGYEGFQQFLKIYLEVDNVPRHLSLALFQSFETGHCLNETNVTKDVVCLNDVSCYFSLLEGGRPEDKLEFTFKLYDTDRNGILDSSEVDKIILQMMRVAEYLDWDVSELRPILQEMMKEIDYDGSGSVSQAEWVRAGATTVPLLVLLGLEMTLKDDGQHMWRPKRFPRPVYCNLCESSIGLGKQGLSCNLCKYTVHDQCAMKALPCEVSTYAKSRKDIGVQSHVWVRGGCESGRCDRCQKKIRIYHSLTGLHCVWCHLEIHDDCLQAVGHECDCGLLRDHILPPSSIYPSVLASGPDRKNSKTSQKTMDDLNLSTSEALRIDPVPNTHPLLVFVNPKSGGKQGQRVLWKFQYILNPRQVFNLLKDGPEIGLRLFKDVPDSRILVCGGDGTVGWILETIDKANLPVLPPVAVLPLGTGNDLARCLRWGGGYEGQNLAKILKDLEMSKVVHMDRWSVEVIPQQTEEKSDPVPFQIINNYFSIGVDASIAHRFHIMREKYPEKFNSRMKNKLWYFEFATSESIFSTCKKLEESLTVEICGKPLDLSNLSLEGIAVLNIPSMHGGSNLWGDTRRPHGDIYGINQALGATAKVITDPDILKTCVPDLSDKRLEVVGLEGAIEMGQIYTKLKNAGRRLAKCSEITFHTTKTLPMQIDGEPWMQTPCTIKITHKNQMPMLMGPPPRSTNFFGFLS

Consider `CC[C@H]1CN(C(C)c2cc3c(cn2)OCC3)[C@H](CC)CN1c1cc(=O)n(C)c2cn(CC#N)nc12` (stereo partly drawn) [Compound A196, 2-(7-((2S,5R)-4-(1-(2,3-dihydrofuro[2,3-c]pyridin-5-yl)ethyl)-2,5-diethylpiperazin-1-yl)-4-methyl-5-oxo-4,5-dihydro-2H-pyrazolo[4,3-b]pyridin-2-yl)acetonitrile], for which the half-maximal inhibitory concentration (IC50) on DGKζ was 552 nM; against DGKα, 1020 nM.
In the same order, the values of `CC[C@H]1CN(C(C)c2ccc3nc(C)sc3n2)[C@H](CC)CN1c1c(C#N)c(=O)n(C)c2cn(CC#N)nc12` (single isomer, unassigned) [Compound A140b] are 45 nM and 93 nM.
On to `CC[C@H]1CN(C(C)c2ccc(-c3cn(C)nn3)cc2)[C@H](CC)CN1c1cc(=O)n(C)c2cn(CC#N)nc12` (stereo partly drawn) [Compound A30, 2-(7-((2S,5R)-2,5-diethyl-4-(1-(4-(1-methyl-1H-1,2,3-triazol-4-yl)phenyl)ethyl)piperazin-1-yl)-4-methyl-5-oxo-4,5-dihydro-2H-pyrazolo[4,3-b]pyridin-2-yl)acetonitrile], for which the IC50 on DGKζ stood at 3690 nM; against DGKα, 666 nM.
`CC[C@H]1CN(C(C)c2ccn3nc(C)cc3c2)[C@H](CC)CN1c1cc(=O)n(C)c2cn(CC#N)nc12` (single isomer, unassigned) [Compound A162b]: the IC50 on DGKζ was determined as 3270 nM; against DGKα, 2430 nM.
The like results for `CC[C@H]1CN(C(C)c2ccc3cc(C(F)F)sc3n2)[C@H](CC)CN1c1nc(=O)n(C)c2cn(CC#N)nc12` (single isomer, unassigned) [Compound A148a] were, in that order, 2310 nM and 1280 nM.
The like results for `CC#CCn1cc2c(n1)c(N1C[C@@H](CC)N(C(C)c3ccc4nc(C)sc4c3F)C[C@@H]1CC)cc(=O)n2C` (single isomer, unassigned) [Compound A138b] were, in that order, 3280 nM and 2040 nM.
In the same order, the values of `CC[C@H]1CN(C(C)c2ccc(C3CC3)nc2)[C@H](CC)CN1c1cc(=O)n(C)c2cn(CC3COC3)nc12` (stereo partly drawn) [Compound A122, 7-((2S,5R)-4-(1-(6-cyclopropylpyridin-3-yl)ethyl)-2,5-diethylpiperazin-1-yl)-4-methyl-2-(oxetan-3-ylmethyl)-2,4-dihydro-5H-pyrazolo[4,3-b]pyridin-5-one] are greater than 10000 nM and 17100 nM.
On to `CC[C@H]1CN(C(C)c2cc(F)c3ncsc3c2)[C@H](CC)CN1c1cc(=O)n(C)c2cn(CC#N)nc12` (single isomer, unassigned) [Compound A101a], for which the IC50 at DGKζ came out at 19 nM; against DGKα, 2610 nM.
In the same order, the values of `CC[C@H]1CN(C(C)c2ccc3ncsc3n2)[C@H](CC)CN1c1nc(=O)n(C)c2cn(CC#N)nc12` (single isomer, unassigned) [Compound A126b] are 51 nM and 93 nM.
The like results for `CC[C@H]1CN(C(C)c2ccn3ncc(F)c3n2)[C@H](CC)CN1c1cc(=O)n(C)c2cn(CC#N)nc12` (single isomer, unassigned) [Compound A161a] were, in that order, greater than 10000 nM and greater than 10000 nM.
In the same order, the values of `CCC(c1ccc(C(F)(F)F)cc1)N1C[C@H](CC)N(c2cc(=O)n(C)c3cn(CC#N)nc23)C[C@H]1CC` (single isomer, unassigned) [Compound A135a] are 96 nM and 86 nM.
Regarding `CC[C@H]1CN(C(C)c2ccc3cncn3c2)[C@H](CC)CN1c1cc(=O)n(C)c2cn(CC#N)nc12` (single isomer, unassigned) [Compound A83a], the IC50 came to 8790 nM on DGKζ and 648 nM at DGKα.
The like results for `CC#CCn1cc2c(n1)c(N1C[C@@H](CC)N(C(C)c3ccc(C4CC4)nc3)C[C@@H]1CC)cc(=O)n2C` (single isomer, unassigned) [Compound A39a] were, in that order, 464 nM and 33 nM.
